No end group written: not given here.
Assays:
E. coli = experiment: Bacterial growth inhibition by OD600 absorbance, E. coli; format: cell-based, E. coli (DH5-alpha); conditions: peptide 10 μM, 24 hours at 37° C., OD 600 nm
Procedure: (§1) Antimicrobial activity of antimicrobial peptides was tested against the agricultural microbial pests A. tumefaciens, E. amylovora, E. coli, and X. citri, using OD absorbance measurement to detect bacterial growth.
(§2) Antimicrobial peptides were synthesized using solid phase peptide synthesis method and resuspended in 10% DMSO to a 1 mM stock concentration. The stock solution was aliquoted in cryovials and stored at −80° C.
(§3) An aliquot of 198 μl of the bacterial culture was added to each well in a 96-well plate and 2 μl of a 1 mM peptide stock solution was added to each well, for a final treatment concentration of 10 μM of a given peptide. Media only wells were included to control for contamination. The positive controls were 50 μg/ml oxytetracycline hydrochloride and 500 μg/ml streptomycin sulfate. A 0.1% DMSO treatment was included as a negative control.
(§4) An initial absorbance reading of the bacterial suspensions was taken at 600 nm. Then, the bacteria were grown in an incubator at 30° C. (A. tumefaciens, E. amylovora, X. citri) or 37° C. (E. coli) for 24 hours, after which the final absorbance reading was measured. Using the initial and final absorbance reading compared to negative and positive controls, the percent inhibition of the bacterial strain by given peptide treatment was determined.

X. citri = experiment: Bacterial growth inhibition by OD600 absorbance, X. citri; format: cell-based, X. citri subsp. citri (ATCC 49118); conditions: peptide 10 μM, 24 hours at 30° C., OD 600 nm
Procedure: as §1, §2, §3, §4

A. tumefaciens = conditions: 24 h, 10 μM
E. amylovora = conditions: 24 h, 10 μM

Row | Sequence | growth inhibition, E. coli (E. coli) | growth inhibition, X. citri (X. citri) | growth inhibition, A. tumefaciens (A. tumefaciens) | growth inhibition, E. amylovora (E. amylovora)
1 | INLKKLAARIKKKI [compound 112] | <90% | 100.00% | <90% | <90%
2 | INWKKIKKKVAGML [compound 108] | <90% | 100.00% | <90% | 95.63%
3 | INWLKIAKKVKGML [compound 111] | <90% | 100.00% | <90% | 100.00%
4 | IRIKIRIKIRIK [compound 123] | <90% | <90% | <90% | <90%
5 | IRVKIRVKIRVK [compound 128] | 100.00% | <90% | 97.32% | 99.30%
6 | KIKWILKYWKWS [compound 106] | <90% | <90% | <90% | <90%
7 | KKAAAAAAAAAAAAWAAAAAAKKKK [compound 70] | <90% | <90% | <90% | <90%
8 | KKIGIWIGIKK [compound 141] | <90% | <90% | <90% | <90%
9 | KKKKKKAAAFAAAAAFAAWAAFAAA [compound 51] | <90% | <90% | <90% | <90%
10 | KKKKWKLFKKIGIGKFL [compound 75] | <90% | 100.00% | <90% | 100.00%
11 | KKLLKLKLKWKK [compound 121] | <90% | 100.00% | <90% | <90%
12 | KKLTLWLTLKK [compound 140] | <90% | <90% | <90% | <90%
13 | KKPLLKKLLKKL [compound 133] | <90% | <90% | <90% | <90%
14 | KKVVFKVKFK [compound 142] | <90% | <90% | <90% | <90%
15 | KKWRKWLAKKKKK [compound 101] | <90% | <90% | <90% | <90%
16 | KLKKIWWIKVKK [compound 116] | <90% | <90% | <90% | <90%
17 | KLKKLLKKWLKLLKKLLK [compound 68] | 100.00% | <90% | <90% | <90%
18 | KLLKQWPIGKLLKKLLKKLLK [compound 42] | 100.00% | 100.00% | 100.00% | <90%

Row | Sequence | growth inhibition, E. coli (E. coli) | growth inhibition, X. citri (X. citri) | growth inhibition, A. tumefaciens (A. tumefaciens) | growth inhibition, E. amylovora (E. amylovora)
19 | KLLLKWKLKLLK [compound 126] | <90% | <90% | <90% | <90%
20 | KLRKLFRKLLKLIRKLLR [compound 65] | 95.59% | <90% | <90% | <90%
21 | KRIVARIKAFLR [compound 130] | <90% | <90% | <90% | 100.00%
22 | KVVKQWPIGKVVKKVVKKVVK [compound 58] | <90% | <90% | <90% | <90%
23 | KWKLFKKIGPGKFLHSAKKF [compound 60] | <90% | <90% | <90% | <90%
24 | KWKLFKKIPLAKKF [compound 100] | <90% | <90% | <90% | <90%
25 | KWKSFLKTFKSAKKTSLHTALKAISS [compound 26] | <90% | <90% | <90% | <90%
26 | KWKSFLKTLKSPVKTVFYTALKPISS [compound 22] | 100.00% | 100.00% | 100.00% | 100.00%
27 | KWLKKWLKWLKK [compound 102] | 100.00% | <90% | 100.00% | 100.00%
28 | KWLLKLKLKLLK [compound 125] | <90% | <90% | <90% | <90%
29 | LKKWWKTSKGLLGGLLGKVTSVIK [compound 34] | 100.00% | 100.00% | 100.00% | 100.00%
30 | MQFITDLIKKAVDFIKGLFGNK [compound 43] | 94.72% | <90% | <90% | <90%
31 | NAGSLLSGWG [compound 144] | <90% | <90% | <90% | <90%
32 | NKVKEWIKYLKSLFS [compound 96] | <90% | <90% | 100.00% | 100.00%
33 | RLSRIVVIRVSR [compound 132] | <90% | <90% | <90% | <90%
34 | SWLSKTAKKLENSAKKRISEGIAIAIQGGPR [compound 11] | 100.00% | 100.00% | 99.35% | 100.00%
35 | VKLVYPLKVKLYP [compound 119] | <90% | <90% | <90% | <90%
36 | VKLYPVKLYP [compound 143] | <90% | <90% | <90% | <90%
